In ChEMBL document CHEMBL5726561, “Compounds and pharmaceutical compositions thereof for the treatment of inflammatory disorders” (2017):

Biological target: Autotaxin (Homo sapiens, UniProt Q13822)
Experiment: Biochemical Assay: Compound IC50 values are determined in a fluorescent hENPP2 (UniProtKB/SwissProt Sequence ref Q13822) biochemical assay using the fluorogenic autotaxin substrate FS-3 as substrate. FS-3 is a doubly labeled analog of LPC wherein the fluorophore is quenched through intramolecular energy transfer. Without hENPP2, the emission of the probe is quenched. If the substrate is hydrolyzed by hENPP2, the emission of the probe is not quenched anymore resulting in a fluorescence increase. Inhibition of hENPP2 by compounds will result in a decrease of the signal. 10 uL of a dilution series of compound, starting from 20 uM highest concentration, dilution, is added to the wells. hENPP2 is used at a final concentration of 0.4 ug/mL or 0.64 ug/mL (it will be appreciated by the skilled person that the potency read out is independent of the enzyme concentration). The enzyme is diluted in 50 mM Tris-HCl pH 8.0, 250 mM NaCl, 5 mM KCl, 1 mM MgCl2, 1 mM CaCl2, 0.1% fatty acid free BSA in a total volume of 20 uL. Enzyme mixture is added to compounds and the resulting mixture is incubated for 30 min at room temperature under shaking. The reaction is started by the addition of 20 uL of 0.75 uM FS-3 diluted in the same buffer as described above and the mixture is incubated at 30° C. for 30 min. Fluorescence is read on the Envision (Excitation 485 nm, emission 520 nm).

Compound: CCc1nc2ccc(N3CCC(NC(=O)C4CCOCC4)CC3)nn2c1N(C)c1nc(-c2ccc(F)cc2)cs1
- IC50: < 1000 nM
